Assay results as given in ChEMBL document CHEMBL3885881, “DrugMatrix”.

Organism: Rattus norvegicus
Experiment: DrugMatrix - Regimen: Daily Repeat
Type: toxicity, organism-based, Sprague-Dawley
Design: regimen Daily Repeat, gender Male, age 6-8 weeks
Conditions: in vivo, iv, vehicle 100 % SALINE; for ABSOLUTE BASOPHIL / ABSOLUTE EOSINOPHIL / ABSOLUTE LYMPHOCYTE / ABSOLUTE MONOCYTE / ABSOLUTE SEGMENTED NEUTROPHIL / BASOPHIL / EOSINOPHIL / ERYTHROCYTE COUNT / HEMATOCRIT / HEMOGLOBIN / LEUKOCYTE COUNT / LYMPHOCYTE / MEAN CORPUSCULAR HEMOGLOBIN / MEAN CORPUSCULAR HEMOGLOBIN CONCENTRATION / MEAN CORPUSCULAR VOLUME / MONOCYTE / NEUTROPHIL / NUCLEATED RED BLOOD CELLS / PLATELET COUNT: tissue Blood; for ALANINE AMINOTRANSFERASE / ALBUMIN / ALKALINE PHOSPHATASE / ASPARTATE AMINOTRANSFERASE / BLOOD UREA NITROGEN / CARBON DIOXIDE / CHLORIDE / CHOLESTEROL / CREATINE PHOSPHOKINASE / CREATININE / GLUCOSE / LACTATE DEHYDROGENASE / LIPASE / PHOSPHORUS / POTASSIUM / SODIUM / TOTAL BILIRUBIN / TOTAL PROTEIN / URIC ACID: tissue Plasma
[1] = 0 mg/kg, 72 h, dose level Control, time 3 day
[2] = 0 mg/kg, 120 h, dose level Control, time 5 day
[3] = 12 mg/kg, 72 h, dose level High, time 3 day

Cc1c(N)nc([C@H](CC(N)=O)NC[C@H](N)C(N)=O)nc1C(=O)N[C@H](C(=O)N[C@H](C)[C@@H](O)[C@H](C)C(=O)N[C@H](C(=O)NCCc1nc(-c2nc(C(=O)NCCC[S+](C)C)cs2)cs1)[C@@H](C)O)[C@@H](O[C@@H]1O[C@@H](CO)[C@@H](O)[C@H](O)[C@@H]1O[C@H]1O[C@H](CO)[C@@H](O)[C@H](OC(N)=O)[C@@H]1O)c1c[nH]cn1.[Br-] [BLEOMYCIN A2]
ABSOLUTE BASOPHIL [1]: 0 CELLS/uL | ABSOLUTE EOSINOPHIL [1]: 33.67 CELLS/uL | ABSOLUTE LYMPHOCYTE [1]: 12123.5 CELLS/uL | ABSOLUTE MONOCYTE [1]: 243.5 CELLS/uL | ABSOLUTE SEGMENTED NEUTROPHIL [1]: 1282.67 CELLS/uL | BASOPHIL [1]: 0% | EOSINOPHIL [1]: 0.33% | ERYTHROCYTE COUNT [1]: 5.18 x10E6/uL | HEMATOCRIT [1]: 32.63% | HEMOGLOBIN [1]: 12.87 G/DL | LEUKOCYTE COUNT [1]: 13.68 x10E3/uL | LYMPHOCYTE [1]: 88.67% | MEAN CORPUSCULAR HEMOGLOBIN [1]: 24.98 pg | MEAN CORPUSCULAR HEMOGLOBIN CONCENTRATION [1]: 39.48 G/DL | MEAN CORPUSCULAR VOLUME [1]: 63.23 fL | MONOCYTE [1]: 1.83% | NEUTROPHIL [1]: 9.17% | NUCLEATED RED BLOOD CELLS [1]: 0.17 /100WBC | PLATELET COUNT [1]: 1114.5 x10E3/uL | ALANINE AMINOTRANSFERASE [1]: 46.17 u/L | ALBUMIN [1]: 4.15 G/DL | ALKALINE PHOSPHATASE [1]: 374.67 u/L | ASPARTATE AMINOTRANSFERASE [1]: 89.33 u/L | BLOOD UREA NITROGEN [1]: 14.83 mg/dL | CARBON DIOXIDE [1]: 25.67 mmol/L | CHLORIDE [1]: 101.17 MEQ/L | CHOLESTEROL [1]: 63.5 mg/dL | CREATINE PHOSPHOKINASE [1]: 494.67 u/L | CREATININE [1]: 0.17 mg/dL | GLUCOSE [1]: 163 mg/dL | LACTATE DEHYDROGENASE [1]: 269.33 u/L | LIPASE [1]: 10.67 u/L | PHOSPHORUS [1]: 11.27 mg/dL | POTASSIUM [1]: 5.85 MEQ/L | SODIUM [1]: 141.68 MEQ/L | TOTAL BILIRUBIN [1]: 0.18 mg/dL | TOTAL PROTEIN [1]: 5.87 G/DL | URIC ACID [1]: 1.28 mg/dL | ABSOLUTE BASOPHIL [2]: 0 CELLS/uL | ABSOLUTE EOSINOPHIL [2]: 24.67 CELLS/uL | ABSOLUTE LYMPHOCYTE [2]: 11832.83 CELLS/uL | ABSOLUTE MONOCYTE [2]: 279.67 CELLS/uL | ABSOLUTE SEGMENTED NEUTROPHIL [2]: 1446.17 CELLS/uL | BASOPHIL [2]: 0% | EOSINOPHIL [2]: 0.17% | ERYTHROCYTE COUNT [2]: 5.61 x10E6/uL | HEMATOCRIT [2]: 35.02% | HEMOGLOBIN [2]: 13.82 G/DL | LEUKOCYTE COUNT [2]: 13.58 x10E3/uL | LYMPHOCYTE [2]: 87.67% | MEAN CORPUSCULAR HEMOGLOBIN [2]: 24.68 pg | MEAN CORPUSCULAR HEMOGLOBIN CONCENTRATION [2]: 39.5 G/DL | MEAN CORPUSCULAR VOLUME [2]: 62.42 fL | MONOCYTE [2]: 2% | NEUTROPHIL [2]: 10.17% | NUCLEATED RED BLOOD CELLS [2]: 0 /100WBC | PLATELET COUNT [2]: 1178.17 x10E3/uL | ALANINE AMINOTRANSFERASE [2]: 52.83 u/L | ALBUMIN [2]: 4.12 G/DL | ALKALINE PHOSPHATASE [2]: 370 u/L | ASPARTATE AMINOTRANSFERASE [2]: 100.5 u/L | BLOOD UREA NITROGEN [2]: 15.17 mg/dL | CARBON DIOXIDE [2]: 28.83 mmol/L | CHLORIDE [2]: 101 MEQ/L | CHOLESTEROL [2]: 69.5 mg/dL | CREATINE PHOSPHOKINASE [2]: 488.67 u/L | CREATININE [2]: 0.23 mg/dL | GLUCOSE [2]: 165 mg/dL | LACTATE DEHYDROGENASE [2]: 502.17 u/L | LIPASE [2]: 11 u/L | PHOSPHORUS [2]: 11.7 mg/dL | POTASSIUM [2]: 5.85 MEQ/L | SODIUM [2]: 142.45 MEQ/L | TOTAL BILIRUBIN [2]: 0.18 mg/dL | TOTAL PROTEIN [2]: 5.85 G/DL | URIC ACID [2]: 1.43 mg/dL | ABSOLUTE BASOPHIL [3]: 0 CELLS/uL | ABSOLUTE EOSINOPHIL [3]: 0 CELLS/uL | ABSOLUTE LYMPHOCYTE [3]: 10537 CELLS/uL | ABSOLUTE MONOCYTE [3]: 346.67 CELLS/uL | ABSOLUTE SEGMENTED NEUTROPHIL [3]: 2083 CELLS/uL | BASOPHIL [3]: 0% | EOSINOPHIL [3]: 0% | ERYTHROCYTE COUNT [3]: 6.18 x10E6/uL | HEMATOCRIT [3]: 38.57% | HEMOGLOBIN [3]: 15.13 G/DL | LEUKOCYTE COUNT [3]: 12.97 x10E3/uL | LYMPHOCYTE [3]: 81.67% | MEAN CORPUSCULAR HEMOGLOBIN [3]: 24.5 pg | MEAN CORPUSCULAR HEMOGLOBIN CONCENTRATION [3]: 39.23 G/DL | MEAN CORPUSCULAR VOLUME [3]: 62.37 fL | MONOCYTE [3]: 2.67% | NEUTROPHIL [3]: 15.67% | NUCLEATED RED BLOOD CELLS [3]: 0 /100WBC | PLATELET COUNT [3]: 1055.67 x10E3/uL | ALANINE AMINOTRANSFERASE [3]: 38 u/L | ALBUMIN [3]: 3.8 G/DL | ALKALINE PHOSPHATASE [3]: 233.67 u/L | ASPARTATE AMINOTRANSFERASE [3]: 110 u/L | BLOOD UREA NITROGEN [3]: 10.33 mg/dL | CARBON DIOXIDE [3]: 27.67 mmol/L | CHLORIDE [3]: 100.33 MEQ/L | CHOLESTEROL [3]: 56.33 mg/dL | CREATINE PHOSPHOKINASE [3]: 923.67 u/L | CREATININE [3]: 0.12 mg/dL | GLUCOSE [3]: 136.67 mg/dL | LACTATE DEHYDROGENASE [3]: 439.67 u/L | LIPASE [3]: 9.67 u/L | PHOSPHORUS [3]: 10.5 mg/dL | POTASSIUM [3]: 5.86 MEQ/L | SODIUM [3]: 140.77 MEQ/L | TOTAL BILIRUBIN [3]: 0.13 mg/dL | TOTAL PROTEIN [3]: 5.47 G/DL | URIC ACID [3]: 1.3 mg/dL
